From BigSolDB 2.1

Question: What does the source list for COC(=O)c1cccc(C(=O)OC)n1?
Answer: solubility (mole fraction) (in DMSO, 293.15 K): 0.0174; solubility (mole fraction) (in DMSO, 298.15 K): 0.0205; solubility (mole fraction) (in DMSO, 303.15 K): 0.0271; solubility (mole fraction) (in DMSO, 308.15 K): 0.0323; solubility (mole fraction) (in DMSO, 313.15 K): 0.0435; solubility (mole fraction) (in DMSO, 318.15 K): 0.0503; solubility (mole fraction) (in DMSO, 323.15 K): 0.0658; solubility (mole fraction) (in THF, 278.15 K): 0.00553; solubility (mole fraction) (in THF, 283.15 K): 0.00773; solubility (mole fraction) (in THF, 288.15 K): 0.00891; solubility (mole fraction) (in THF, 293.15 K): 0.0115; solubility (mole fraction) (in THF, 298.15 K): 0.0138; solubility (mole fraction) (in THF, 303.15 K): 0.0166; solubility (mole fraction) (in THF, 308.15 K): 0.0219; solubility (mole fraction) (in THF, 313.15 K): 0.0293; solubility (mole fraction) (in THF, 318.15 K): 0.0373; solubility (mole fraction) (in THF, 323.15 K): 0.046; solubility (mole fraction) (in ethanol, 278.15 K): 0.00042; solubility (mole fraction) (in ethanol, 283.15 K): 0.00068; solubility (mole fraction) (in ethanol, 288.15 K): 0.00103; solubility (mole fraction) (in ethanol, 293.15 K): 0.00147; solubility (mole fraction) (in ethanol, 298.15 K): 0.00215; solubility (mole fraction) (in ethanol, 303.15 K): 0.00323; solubility (mole fraction) (in ethanol, 308.15 K): 0.00436; solubility (mole fraction) (in ethanol, 313.15 K): 0.00576; solubility (mole fraction) (in ethanol, 318.15 K): 0.00757; solubility (mole fraction) (in ethanol, 323.15 K): 0.0101; solubility (mole fraction) (in ethyl acetate, 278.15 K): 0.00335; solubility (mole fraction) (in ethyl acetate, 283.15 K): 0.00364; solubility (mole fraction) (in ethyl acetate, 288.15 K): 0.00549; solubility (mole fraction) (in ethyl acetate, 293.15 K): 0.0082; solubility (mole fraction) (in ethyl acetate, 298.15 K): 0.0105; solubility (mole fraction) (in ethyl acetate, 303.15 K): 0.0149; solubility (mole fraction) (in ethyl acetate, 308.15 K): 0.019; solubility (mole fraction) (in ethyl acetate, 313.15 K): 0.0261; solubility (mole fraction) (in ethyl acetate, 318.15 K): 0.0326; solubility (mole fraction) (in isopentyl acetate, 278.15 K): 0.00146; solubility (mole fraction) (in isopentyl acetate, 283.15 K): 0.00192; solubility (mole fraction) (in isopentyl acetate, 288.15 K): 0.00252; solubility (mole fraction) (in isopentyl acetate, 293.15 K): 0.00334; solubility (mole fraction) (in isopentyl acetate, 298.15 K): 0.00438; solubility (mole fraction) (in isopentyl acetate, 303.15 K): 0.00576; solubility (mole fraction) (in isopentyl acetate, 308.15 K): 0.00729; solubility (mole fraction) (in isopentyl acetate, 313.15 K): 0.00944; solubility (mole fraction) (in isopentyl acetate, 318.15 K): 0.0158; solubility (mole fraction) (in isopentyl acetate, 323.15 K): 0.0216; solubility (mole fraction) (in isopropanol, 278.15 K): 0.00032; solubility (mole fraction) (in isopropanol, 283.15 K): 0.00049; solubility (mole fraction) (in isopropanol, 288.15 K): 0.00071; solubility (mole fraction) (in isopropanol, 293.15 K): 0.00116; solubility (mole fraction) (in isopropanol, 298.15 K): 0.0017; solubility (mole fraction) (in isopropanol, 303.15 K): 0.0022; solubility (mole fraction) (in isopropanol, 308.15 K): 0.0032; solubility (mole fraction) (in isopropanol, 313.15 K): 0.00414; solubility (mole fraction) (in isopropanol, 318.15 K): 0.00579; solubility (mole fraction) (in isopropanol, 323.15 K): 0.00785; solubility (mole fraction) (in isopropyl acetate, 278.15 K): 0.00191; solubility (mole fraction) (in isopropyl acetate, 283.15 K): 0.00235; solubility (mole fraction) (in isopropyl acetate, 288.15 K): 0.00343; solubility (mole fraction) (in isopropyl acetate, 293.15 K): 0.00516; solubility (mole fraction) (in isopropyl acetate, 298.15 K): 0.00721; solubility (mole fraction) (in isopropyl acetate, 303.15 K): 0.0094; solubility (mole fraction) (in isopropyl acetate, 308.15 K): 0.0117; solubility (mole fraction) (in isopropyl acetate, 313.15 K): 0.0161; solubility (mole fraction) (in isopropyl acetate, 318.15 K): 0.0202; solubility (mole fraction) (in isopropyl acetate, 323.15 K): 0.0262; solubility (mole fraction) (in methanol, 278.15 K): 0.00057; solubility (mole fraction) (in methanol, 283.15 K): 0.00092; solubility (mole fraction) (in methanol, 288.15 K): 0.00142; solubility (mole fraction) (in methanol, 293.15 K): 0.00199; solubility (mole fraction) (in methanol, 298.15 K): 0.00283; solubility (mole fraction) (in methanol, 303.15 K): 0.00425; solubility (mole fraction) (in methanol, 308.15 K): 0.0055; solubility (mole fraction) (in methanol, 313.15 K): 0.0075; solubility (mole fraction) (in methanol, 318.15 K): 0.00974; solubility (mole fraction) (in methanol, 323.15 K): 0.012; solubility (mole fraction) (in methyl acetate, 278.15 K): 0.00524; solubility (mole fraction) (in methyl acetate, 283.15 K): 0.00759; solubility (mole fraction) (in methyl acetate, 288.15 K): 0.0118; solubility (mole fraction) (in methyl acetate, 293.15 K): 0.0145; solubility (mole fraction) (in methyl acetate, 298.15 K): 0.0201; solubility (mole fraction) (in methyl acetate, 303.15 K): 0.0255; solubility (mole fraction) (in methyl acetate, 308.15 K): 0.0312; solubility (mole fraction) (in methyl acetate, 313.15 K): 0.041; solubility (mole fraction) (in methyl acetate, 318.15 K): 0.0489; solubility (mole fraction) (in methyl acetate, 323.15 K): 0.0635; solubility (mole fraction) (in n-butyl acetate, 278.15 K): 0.0015; solubility (mole fraction) (in n-butyl acetate, 283.15 K): 0.00203; solubility (mole fraction) (in n-butyl acetate, 288.15 K): 0.00286; solubility (mole fraction) (in n-butyl acetate, 293.15 K): 0.00462; solubility (mole fraction) (in n-butyl acetate, 298.15 K): 0.00671; solubility (mole fraction) (in n-butyl acetate, 303.15 K): 0.00883; solubility (mole fraction) (in n-butyl acetate, 308.15 K): 0.0113; solubility (mole fraction) (in n-butyl acetate, 313.15 K): 0.0158; solubility (mole fraction) (in n-butyl acetate, 318.15 K): 0.0201; solubility (mole fraction) (in n-butyl acetate, 323.15 K): 0.026; solubility (mole fraction) (in n-pentyl acetate, 283.15 K): 0.0027; solubility (mole fraction) (in n-pentyl acetate, 288.15 K): 0.0038; solubility (mole fraction) (in n-pentyl acetate, 293.15 K): 0.00459; solubility (mole fraction) (in n-pentyl acetate, 298.15 K): 0.00625; solubility (mole fraction) (in n-pentyl acetate, 303.15 K): 0.00851; solubility (mole fraction) (in n-pentyl acetate, 308.15 K): 0.0111; solubility (mole fraction) (in n-pentyl acetate, 313.15 K): 0.015; solubility (mole fraction) (in n-pentyl acetate, 318.15 K): 0.0189; solubility (mole fraction) (in n-pentyl acetate, 323.15 K): 0.0243; solubility (mole fraction) (in n-propanol, 278.15 K): 0.00032; solubility (mole fraction) (in n-propanol, 283.15 K): 0.0005; solubility (mole fraction) (in n-propanol, 288.15 K): 0.00078; solubility (mole fraction) (in n-propanol, 293.15 K): 0.0011; solubility (mole fraction) (in n-propanol, 298.15 K): 0.00171; solubility (mole fraction) (in n-propanol, 303.15 K): 0.00228; solubility (mole fraction) (in n-propanol, 308.15 K): 0.00357; solubility (mole fraction) (in n-propanol, 313.15 K): 0.00476; solubility (mole fraction) (in n-propanol, 318.15 K): 0.00621; solubility (mole fraction) (in n-propanol, 323.15 K): 0.00839
